In ChEMBL document CHEMBL1150071, “Konbamidin, a new indole alkaloid from the Okinawan marine sponge Ircinia sp” (J Nat Prod, 1994):
In brackets after ≈: the same amount, converted by molar mass.

Test system: HeLa
Assay: Cytotoxicity against human HeLa cells
Type: functional, cell-based

O=C(O)CN[C@H](Cc1c[nH]c2ccccc12)C(=O)O [KONBAMIDIN]
IC50: 5.4 µg/mL (≈ 20.6 µM)
